Laboratory results as given in patent US20230286995A1, “METABOLICALLY STABLE PYRIMIDINYL DIHYDROQUINOXALINONES AS TUBULIN POLYMERIZATION INHIBITORS” (UNIVERSITY OF TENNESSEE RESEARCH FOUNDATION, priority 2022, published 2023).
“Also recorded” adds a separate entry of the source. Where two headings read alike, the source gives them in different places.

Key:
A375 = assay: Cytotoxicity assay (MTS, 72 h); settings: Homo sapiens;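 further: compounds tested from 0.1 nM up to 3 µM in four replicate wells, with absorbance read at 490 nm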
[1] = Tolerability assessment of 5v in healthy mice; type: in vivo
A375/TxR cells = assay: Cell cycle analysis (PI, flow cytometry); type: cell-based, human; settings: 5v 1, 2, 5 nM, 24 h
porcine brain tubulin = biological target: T1, porcine brain tubulin (Sus scrofa, UniProt P02550+P02554); assay: Tubulin polymerization inhibitory assay (FIG. 29A); type: biochemical; settings: 10 μM, 37° C.; DMSO control 0.3
T1 construct: tubulin mixture containing porcine brain tubulin (3 mg/mL); purchased Cytoskeleton, Inc. T-238P; host or cells: porcine brain
Description: Tubulin polymerization inhibitory assay: In vitro tubulin polymerization assay was carried out according to the manufacturers' instructions (Cytoskeleton). Briefly, 10 μM of 5v was added into tubulin protein (3 mg/mL, purity>99%), and the mixture was transferred into a microplate reader and incubated at 37° C. […] Colchicine and paclitaxel were used as positive controls. […] The assay was carried out in duplicate.

[2] = biological target: T2, tubulin protein from bovine brain (Bos taurus, UniProt P81947+Q6B856); assay: Tubulin polymerization assay (FIG. 5A); type: biochemical; settings: 10 μM, cell-free
T2 construct: tubulin protein from bovine brain origin; purchased Cytoskeleton, Denver, Colo; host or cells: bovine brain
Description: Tubulin polymerization reaction was initiated by adding 100 μL of tubulin protein from bovine brain origin (3 mg/ml, Cytoskeleton, Denver, Colo.) into 10 μM of test compounds in general tubulin buffer (80 mM PIPES, 2.0 mM MgCl2, 0.5 mM EGTA, and 1 mM GTP) according to the manufacturer protocol. The reaction kinetics were recorded in every thirty seconds for 1 h at 37° C. and a microplate reader equipped with absorbance settings at 340 nm wavelength was used for this purpose. The experiment was performed in duplicates.

A549 = assay: cells; settings: Homo sapiens, A549, read-out: IC50 ± SEM (nM) A549
DU-145/VxR xenografts = test system: DU-145/VxR xenografts; design: species or system NSG mice; settings: mouse, in vivo
22RV1 xenografts = assay: 22RV1 prostate cancer xenograft model; type: in vivo, NSG mice; settings: 1 mg/kg IV, 2 times/week
Description: FIG. 19D: Similarly, for 22RV1 prostate cancer xenograft model, we inoculated 2.5×10^6 22RV1 cells subcutaneously into the right flank of each mouse. The cells were prepared in the mixture of FBS and phenol red-free DMEM medium and Matrigel (1:1 ratio). […] We measured tumor volume 2 times a week until reaching the study endpoint.

[3] = test system: MDA-MB-231/VxR xenografts; assay: Orthotopic MDA-MB-231/VxR xenograft model; type: in vivo, NSG mice; settings: 5m IV 1×/wk; Compound 17ya 20 mg/kg 3×/wk
[4] = test system: PANC-1 and Mia PaCa-2 cell lines; assay: Cell cycle analysis (PDAC); type: cell-based, human
Description: The cells were plated in 100-mm dishes at a concentration of 1-2×10^6 cells/dish in DMEM without serum. After serum starvation for 24 h, medium was replaced with complete culture medium containing tested compounds. For cell cycle analysis, the cells were trypsinized and fixed with 70% ethanol in −20° C. overnight. The fixed cells were incubated with 100 μg/mL of RNase A and 50 μg/mL propidium iodide for 30 min at room temperature. Stained cells were analyzed using Bio-Rad ZE5 and ModFit LT 5.0.9 software at Flow cytometry and cell sorting core at the University of Tennessee Health Science Center (UTHSC) and the proportion of G1, S, G2/M phases were determined.

in vitro = settings: rat, liver microsomes
Mia PaCa-2 cells = assay: Scratch migration assay (PDAC); type: cell-based, human; settings: 5m 2 nM, PTX 4 nM, 48 h
Description: The Mia PaCa-2 cells (25,000 cells/well) were seeded in 96-well plates and allowed to adhere overnight. At 80-90% confluence, scratch was made with a wound maker. After washing off the debris, medium was replaced and tested compounds were added. Cells were live monitored with IncuCyte and pictures obtained every 2 h. Compared with the control, the wound width of cells under different treatment conditions was quantified according to the endpoint width over starting point.

T2 sequence (P81947 whole entry): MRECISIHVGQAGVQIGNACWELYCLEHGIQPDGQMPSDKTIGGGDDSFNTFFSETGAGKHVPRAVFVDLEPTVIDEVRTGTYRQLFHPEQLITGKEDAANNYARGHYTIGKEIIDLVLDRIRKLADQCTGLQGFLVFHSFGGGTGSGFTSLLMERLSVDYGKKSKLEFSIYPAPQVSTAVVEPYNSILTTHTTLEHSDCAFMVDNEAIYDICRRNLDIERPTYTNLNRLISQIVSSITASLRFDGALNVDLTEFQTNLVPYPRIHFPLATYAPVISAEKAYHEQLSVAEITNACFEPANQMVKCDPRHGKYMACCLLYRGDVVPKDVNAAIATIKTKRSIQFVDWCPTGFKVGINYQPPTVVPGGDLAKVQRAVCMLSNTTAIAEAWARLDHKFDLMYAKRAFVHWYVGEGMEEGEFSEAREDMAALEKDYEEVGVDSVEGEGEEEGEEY
T2 sequence (Q6B856 whole entry): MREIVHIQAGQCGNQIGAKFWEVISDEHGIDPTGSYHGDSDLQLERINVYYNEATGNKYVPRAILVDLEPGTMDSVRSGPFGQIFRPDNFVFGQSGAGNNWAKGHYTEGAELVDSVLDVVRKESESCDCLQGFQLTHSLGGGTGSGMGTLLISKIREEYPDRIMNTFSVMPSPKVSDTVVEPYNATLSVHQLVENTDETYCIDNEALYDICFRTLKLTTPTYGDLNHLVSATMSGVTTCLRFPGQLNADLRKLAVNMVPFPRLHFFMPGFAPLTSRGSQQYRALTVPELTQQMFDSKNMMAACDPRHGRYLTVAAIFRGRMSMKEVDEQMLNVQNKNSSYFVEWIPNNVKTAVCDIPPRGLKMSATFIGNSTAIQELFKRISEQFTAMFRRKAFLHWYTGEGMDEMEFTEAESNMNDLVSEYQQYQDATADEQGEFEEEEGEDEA
T1 sequence (P02550 whole entry): as the sequence (P81947 whole entry) above, with L136S, S232G, I265A, S340T, Q358E counted along it
T1 sequence (P02554 whole entry): as the sequence (Q6B856 whole entry) above, with T55A, M170V, S296A, I316V, E440G, G441E counted along it

Row | Structure (SMILES) | IC50 (A375; A-375, read-out: IC50 (nM) Melanoma A375, Table 1) | IC50 (A375; A-375, read-out: IC50 (nM) Melanoma Cancer A375, Table 6) | IC50 (A375; A-375, read-out: IC50 ± SEM (nM) A375, Table 2) | tolerability ([1]; 5 mg/kg IP, five times a week) | tolerability ([1]; 5 mg/kg and 10 mg/kg IV, 2 times a week) | tolerability ([1]; 10 mg/kg IP, five times a week) | G2/M phase arrest (A375/TxR cells) | A340 at which tubulin assembly stabilized (porcine brain tubulin) | effect on microtubule polymerization [2] | IC50 (A549) | endpoint average tumor volume (DU-145/VxR xenografts) | growth of 22RV1 xenografts (22RV1 xenografts) | tumor growth of MDA-MB-231/VxR xenografts [3] | cell cycle arrest at G2/M phase [4] | CLint scaled at 1 μg/mL (in vitro) | cell migration / wound healing (Mia PaCa-2 cells)
1 | CCNc1nc2c(c(N3CC(=O)Nc4cc(OC)ccc43)n1)CCC2 [Compound 5v, 4-(2-(ethylamino)-6,7-dihydro-5H-cyclopenta[d]pyrimidin-4-yl)-7-methoxy-3,4-dihydroquinoxalin-2(1H)-one] | 0.7 ± 0.1 nM | ~1.6 nM | 0.4 ± 0.04 nM | still healthy; also recorded: tolerated at 5 mg/kg IP | safe and no acute toxicity | toxic to mice; also recorded: not 10 mg/kg IP | arrested in the G2/M phase to increase dramatically | approximately 0.05 |  |  |  |  |  |  |  | 
2 | COc1ccc2c(c1)NC(=O)CN2c1nc(C)nc2c1CCC2 [Compound 5m, 7-methoxy-4-(2-methyl-6,7-dihydro-5H-cyclopenta[d]pyrimidin-4-yl)-3,4-dihydroquinoxalin-2(1H)-one] |  |  |  |  |  |  |  |  | significantly inhibited microtubule polymerization | 4.5 ± 0.8 nM | ~80 mm^3 | remarkable in inhibiting the growth of 22RV1 xenografts | flat tumor growth curve | dose dependently increase the proportion of cells in G2/M phase | 86.9 mL/min/kg | more effectively inhibited wound healing
